PubChem BioAssay AID1963449 (Molecular Pharmacology Branch, DTP, NCI, 2024)
pIC50: −log10 of the molar value.

Test system: 596521-263-R-J1-PDC complex spheroid growth
Test: Anticancer human tumor 596521-263-R-J1-PDC patient-derived soft tissue sarcoma cell line growth inhibition [Asc]
Settings: for viability, T/C: stronger effect = lower value
In short: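 Complex solid-tumor spheroids incorporating human endothelial and mesenchymal stem cells received single agents or combinations over half-log dilution ranges anchored to clinical Cmax.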
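Further: spheroids exposed to compounds for 7 days.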

NC(=O)C(=Cn1cnc(-c2cc(C(F)(F)F)cc(C(F)(F)F)c2)n1)c1cncnc1 + Cc1c(S(C)(=O)=O)c(-c2cc(F)cc(N3CCN(c4ccc(NS(=O)(=O)c5ccc(NC(CCN6CCC(C(=O)OCCCP(=O)(O)O)CC6)CSc6ccccc6)c(S(=O)(=O)C(F)(F)F)c5)cc4)CC3)c2)c(-c2ccc(Cl)cc2)n1C(C)C
pIC50 (curve of first compound, second compound 0.0316 µM): 7.57 | pIC50 (curve of first compound, second compound 0.1 µM): 7.60 | pIC50 (curve of first compound, second compound 0.316 µM): 7.73 | pIC50 (curve of first compound, second compound 1 µM): 7.81 | pIC50 (curve of first compound, second compound 3.16 µM): 8.07 | pIC50 (curve of first compound, second compound 10 µM): > 9.02 | viability, T/C (second compound 0.0316 µM, first compound 0.000949 µM): 98.4% | viability, T/C (second compound 0.0316 µM, first compound 0.003 µM): 101% | viability, T/C (second compound 0.0316 µM, first compound 0.00949 µM): 80.7% | viability, T/C (second compound 0.0316 µM, first compound 0.03 µM): 49.4% | viability, T/C (second compound 0.0316 µM, first compound 0.0949 µM): 10.3% | viability, T/C (second compound 0.0316 µM, first compound 0.3 µM): 4.54% | viability, T/C (second compound 0.1 µM, first compound 0.000949 µM): 84.2% | viability, T/C (second compound 0.1 µM, first compound 0.003 µM): 94.9% | viability, T/C (second compound 0.1 µM, first compound 0.00949 µM): 71.8% | viability, T/C (second compound 0.1 µM, first compound 0.03 µM): 48.5% | viability, T/C (second compound 0.1 µM, first compound 0.0949 µM): 6.86% | viability, T/C (second compound 0.1 µM, first compound 0.3 µM): 2.64% | viability, T/C (second compound 0.316 µM, first compound 0.000949 µM): 94.8% | viability, T/C (second compound 0.316 µM, first compound 0.003 µM): 82.6% | viability, T/C (second compound 0.316 µM, first compound 0.00949 µM): 71.9% | viability, T/C (second compound 0.316 µM, first compound 0.03 µM): 36.9% | viability, T/C (second compound 0.316 µM, first compound 0.0949 µM): 5.33% | viability, T/C (second compound 0.316 µM, first compound 0.3 µM): 1.97% | viability, T/C (second compound 1 µM, first compound 0.000949 µM): 76% | viability, T/C (second compound 1 µM, first compound 0.003 µM): 80.1% | viability, T/C (second compound 1 µM, first compound 0.00949 µM): 57.9% | viability, T/C (second compound 1 µM, first compound 0.03 µM): 37.2% | viability, T/C (second compound 1 µM, first compound 0.0949 µM): 3.95% | viability, T/C (second compound 1 µM, first compound 0.3 µM): 1.71% | viability, T/C (second compound 3.16 µM, first compound 0.000949 µM): 68.7% | viability, T/C (second compound 3.16 µM, first compound 0.003 µM): 57.7% | viability, T/C (second compound 3.16 µM, first compound 0.00949 µM): 50.6% | viability, T/C (second compound 3.16 µM, first compound 0.03 µM): 21.3% | viability, T/C (second compound 3.16 µM, first compound 0.0949 µM): 3.51% | viability, T/C (second compound 3.16 µM, first compound 0.3 µM): 1.52% | viability, T/C (second compound 10 µM, first compound 0.000949 µM): 47.4% | viability, T/C (second compound 10 µM, first compound 0.003 µM): 51.3% | viability, T/C (second compound 10 µM, first compound 0.00949 µM): 35.7% | viability, T/C (second compound 10 µM, first compound 0.03 µM): 23.6% | viability, T/C (second compound 10 µM, first compound 0.0949 µM): 3.04% | viability, T/C (second compound 10 µM, first compound 0.3 µM): 1.13%

CCN1C(C(=O)NC23CCC(C(=O)O)(CC2)CC3)C(c2cccc(Cl)c2F)C2(C(=O)Nc3cc(Cl)ccc32)C12CCCCC2 (configuration not stated)
viability, T/C (compound 0.00949 µM): 103% [middle of 8 runs] | viability, T/C (compound 0.03 µM): 101% [middle of 8 runs] | viability, T/C (compound 0.0949 µM): 103% [middle of 8 runs] | viability, T/C (compound 0.3 µM): 105% [middle of 8 runs] | viability, T/C (compound 0.949 µM): 102% [middle of 8 runs] | viability, T/C (compound 3 µM): 95.7% [middle of 8 runs] | pIC50 (compound alone, run of 11/07/2022): < 5.52 | pIC50 (curve of compound): < 5.52

NC(=O)C(=Cn1cnc(-c2cc(C(F)(F)F)cc(C(F)(F)F)c2)n1)c1cncnc1 + CCN1C(C(=O)NC23CCC(C(=O)O)(CC2)CC3)C(c2cccc(Cl)c2F)C2(C(=O)Nc3cc(Cl)ccc32)C12CCCCC2
pIC50 (curve of first compound, second compound 0.00949 µM): 7.48 | pIC50 (curve of first compound, second compound 0.03 µM): 7.47 | pIC50 (curve of first compound, second compound 0.0949 µM): 7.43 | pIC50 (curve of first compound, second compound 0.3 µM): 7.53 | pIC50 (curve of first compound, second compound 0.949 µM): 7.45 | pIC50 (curve of first compound, second compound 3 µM): 7.55 | viability, T/C (second compound 0.00949 µM, first compound 0.000949 µM): 92% | viability, T/C (second compound 0.00949 µM, first compound 0.003 µM): 97.2% | viability, T/C (second compound 0.00949 µM, first compound 0.00949 µM): 68.5% | viability, T/C (second compound 0.00949 µM, first compound 0.03 µM): 61.4% | viability, T/C (second compound 0.00949 µM, first compound 0.0949 µM): 15.4% | viability, T/C (second compound 0.00949 µM, first compound 0.3 µM): 10.3% | viability, T/C (second compound 0.03 µM, first compound 0.000949 µM): 102% | viability, T/C (second compound 0.03 µM, first compound 0.003 µM): 96.3% | viability, T/C (second compound 0.03 µM, first compound 0.00949 µM): 78.8% | viability, T/C (second compound 0.03 µM, first compound 0.03 µM): 56.8% | viability, T/C (second compound 0.03 µM, first compound 0.0949 µM): 20.4% | viability, T/C (second compound 0.03 µM, first compound 0.3 µM): 11.5% | viability, T/C (second compound 0.0949 µM, first compound 0.000949 µM): 112% | viability, T/C (second compound 0.0949 µM, first compound 0.003 µM): 108% | viability, T/C (second compound 0.0949 µM, first compound 0.00949 µM): 87.8% | viability, T/C (second compound 0.0949 µM, first compound 0.03 µM): 61.4% | viability, T/C (second compound 0.0949 µM, first compound 0.0949 µM): 17.1% | viability, T/C (second compound 0.0949 µM, first compound 0.3 µM): 10.3% | viability, T/C (second compound 0.3 µM, first compound 0.000949 µM): 127% | viability, T/C (second compound 0.3 µM, first compound 0.003 µM): 91.7% | viability, T/C (second compound 0.3 µM, first compound 0.00949 µM): 77.3% | viability, T/C (second compound 0.3 µM, first compound 0.03 µM): 56.6% | viability, T/C (second compound 0.3 µM, first compound 0.0949 µM): 18% | viability, T/C (second compound 0.3 µM, first compound 0.3 µM): 8.14% | viability, T/C (second compound 0.949 µM, first compound 0.000949 µM): 104% | viability, T/C (second compound 0.949 µM, first compound 0.003 µM): 102% | viability, T/C (second compound 0.949 µM, first compound 0.00949 µM): 79.6% | viability, T/C (second compound 0.949 µM, first compound 0.03 µM): 61% | viability, T/C (second compound 0.949 µM, first compound 0.0949 µM): 16.3% | viability, T/C (second compound 0.949 µM, first compound 0.3 µM): 11.4% | viability, T/C (second compound 3 µM, first compound 0.000949 µM): 88.2% | viability, T/C (second compound 3 µM, first compound 0.003 µM): 88.3% | viability, T/C (second compound 3 µM, first compound 0.00949 µM): 74.3% | viability, T/C (second compound 3 µM, first compound 0.03 µM): 48.4% | viability, T/C (second compound 3 µM, first compound 0.0949 µM): 22% | viability, T/C (second compound 3 µM, first compound 0.3 µM): 9.41%
